For test [1], the system named is dystrophin mRNA. The test can be described thus: Q-RT-PCR of DMD and muscle differentiation genes in MyoD-differentiated BMD patient-derived cells (duplication exon 2-7) (FIG. 18C-D). The format is cell-based, human. Particulars: BMD duplication exon 2-7 cells differentiated into muscle cells, compound from day 5 for 6 days. The procedure: (§1) FIGS. 18A-D. MDB stabilizes dystrophin protein levels in BMD patient-derived differentiated muscle cells. 18A-B. BMD patient-derived fibroblasts (duplication exon 2-7) and healthy skin fibroblasts (1092sk) were infected with Tet-on inducible myoD viruses for 24 hours. After 48 hours infected cells were seeded on matrigel coated dishes (2.5×10^5 cells/well) and were exposed to doxycycline ([…]) for 11 days. Doxycycline was changed every 2 days. After 5 days of differentiation cells were exposed to either MDB or 5HD alone or in combination with azithromycin (Azi) for another 6 days. Dystrophin protein levels were measured using western blot (18A) and relative quantification (18B). Arrows show dystrophin protein. 18C-D. Q-RT-PCR of muscle differentiation genes (CK2, myogenin, desmin) (18C) or DMD (18D) in cells described above.
(§2) MyoD trans-differentiation: Primary skin fibroblasts were seeded in 10 cm plates and grown to 70% confluence. 24 hours later cells were infected for 24 h with MyoD inducible viral system (3×Flag-tagged full-length human MYOD1 cDNA-T2A-dsRed-Express2 cassette expressed from the Tetracycline Responsive Element (TRE) promoter. T2A is a peptide that facilitates ribosomal skipping as the mRNA transcript is being translated into protein). 48 hours after infection, cells were seeded in 6-well plates treated with Matrigel. MyoD inducible system transgene expression was induced by supplementing the medium with 3 μg/ml doxycycline. Fresh media with doxycycline was supplemented every 2 days. All differentiation studies were conducted in standard growth medium. Cells were harvested after 11 days of doxycycline treatment.
(§3) Q-RT-PCR: RNA was isolated using. Tri-reagent (Sigma). cDNA synthesis was performed using the High Capacity cDNA Reverse Transcription Kit (Applied Biosystems). Q-RI-PCR was performed using Fast SYBR Green Master Mix (Applied Biosystems) and the StepOnePlus System (Applied Biosystems).

For another test, the system named is dystrophin protein. Nature of the test: Western blot of dystrophin protein in MyoD-differentiated BMD patient-derived cells (duplication exon 2-7) (FIG. 18A-B). The class given is cell-based, human. The procedure: as §1, §2
Western blot analysis: Cells were lysed in Laemmli buffer (10% glycerol, 0.05M Tris pH 6.8, 5% β-mercaptoethanol, 3% SDS) and analyzed for total protein concentration. A total of 30 μg of total protein from each cell lysate was separated by SDS-PAGE and transferred onto a PVDF membrane. The membranes were blocked, probed with antibodies, and signal was detected using enhanced chemiluminescence detection.
For orientation: A western blot detects proteins with antibodies after separation by electrophoresis.

The subject of test [2] is leukemia cells Kasumi 1, NKM-S34F, K562. The test can be described thus: Trypan blue viability assay in leukemia cells (FIG. 21-22). The class given is cell-based. Particulars: 48 hours. As for the experimental part: FIG. 21. Sensitivity of leukemia cells to FTO inhibitors. Leukemia cells Kasumi 1 (AML), NKM-34F (AML harboring U2AF1 S34F mutation) and K562 ([…] wild-type U2AF1) were seeded in 6 well plates and treated with inhibitors (5-azacytidine, MDB, 5-HD) at the indicated concentrations. Cell viability was measured after 48 hours using trypan blue viability assay.
FIG. 22. Sensitivity of leukemia cells to FTO inhibitors. AML cell lines (Kasumi 1 and Kasumi 3) and AML cell line harboring U2AF1 S34F mutation (NKM-S34F) were treated with inhibitors (5-azacytidine, MDB, 5-HD) at the indicated concentrations. Cell viability was measured after 48 hours using trypan blue viability assay.
Trypan-blue exclusion assay: Cells (2×10^6) were seeded in 6-well plates and further treated with inhibitors at different concentrations (as described in figure). After 48 hours cells were trypsinized and collected, including cells in the medium and PBS wash. Cells were resuspended in HBSS and the percentage of dead cells was determined by 0.4% trypan blue staining using a BioRad cell counter.

The subject of test [3] is dystrophin mRNA. Nature of the test: Q-RT-PCR of dystrophin mRNA in patient-derived skin fibroblasts before and after cycloheximide. The class given is cell-based, human. Particulars: cycloheximide for 24 hours, primers exons 65-67. The procedure: FIGS. 2A-B. Dystrophin mRNA is degraded by NMD in DMD patient-derived skin fibroblasts. 2A. Q-RT-PCR of dystrophin mRNA levels from DMD patient-derived skin fibroblasts using primers for exons 65-67 of the dystrophin gene. 2B. Q-RT-PCR of dystrophin mRNA levels in DMD patient-derived skin fibroblasts, before and after exposure to cycloheximide (CHX) for 24 hours, using primers for exons 65-67 of the dystrophin gene.
as §3
Treatment with compounds: 24 hours after cells were seeded the medium was replaced to medium containing the compounds for the indicated amount of time as described in the relevant figure legends. The cells were harvested for either RNA analysis using TRI Reagent (Sigma) or western blot analysis using Laemmli buffer.

Test [4] has as its system dystrophin mRNA. The test can be described thus: Q-RT-PCR of dystrophin mRNA in DMD patient fibroblasts, nonsense mutation in exon 53 (FIG. 9A-B). Particulars: positive control, 9 ug/ml; […]. The class given is cell-based, human.

For the compound `CC[C@H]1OC(=O)[C@H](C)[C@@H](O[C@H]2C[C@@](C)(OC)[C@@H](O)[C@H](C)O2)[C@H](C)[C@@H](O[C@@H]2O[C@H](C)C[C@H](N(C)C)[C@H]2O)[C@](C)(O)C[C@@H](C)CN(C)[C@H](C)[C@@H](O)[C@]1(C)O` [azithromycin, Azithromycin], the “dystrophin mRNA” value in the test on dystrophin mRNA [1] is reported as “produced increases”. Moreover, in the test with dystrophin protein (BMD duplication exon 2-7 cells differentiated into muscle cells, compound from day 5 for 6 days), the dystrophin protein levels entry was “only on mRNA levels”. Further, the “dystrophin expression on addition of a readthrough promoter” value in the test with dystrophin protein (added to FTO inhibitor) is given as “did not enhance dystrophin expression”.

Regarding `N.N.[Cl][Pt][Cl]` [cisplatin, Cisplatin], in test [2], the “sensitivity of AML cell lines with S34F mutation in U2AF1 compared to two lines without the mutation” value was “A similar result was observed”.

As for `C[C@@H]1C[C@@H]([C@H](O)CC2CC(=O)NC(=O)C2)C(=O)[C@@H](C)C1` [cycloheximide], in the test on dystrophin mRNA [3], the “dystrophin mRNA levels” value is “stabilization of dystrophin mRNA for many of the subjects”. For the same compound, the “increase in dystrophin expression” value in the test on dystrophin mRNA [4] was “greater than 10 fold”.

Source of the values: patent US20220339236A1, “TREATMENT OF GENETIC DISEASES CHARACTERIZED BY UNSTABLE mRNAs” (Yissum Research Development Company of the Hebrew …, priority 2019, published 2022).
